Earlier results in patent EP4578441A1, “TREATMENT OF LOCALIZED PAIN” (PlantTec Medical GmbH, priority 2023, dated 2025).
Like-named read-outs stand apart in the source and are kept apart here.

Assays:
volunteers = settings: i.v. infusions
[1] = free base

SMILES | CNS toxicity threshold, free plasma ropivacaine concentration (volunteers; free plasma concentration) | CNS toxicity threshold, free plasma ropivacaine concentration, maximum (volunteers; maximum) | CNS toxicity threshold, free plasma ropivacaine concentration, minimum (volunteers; minimum) | safety of local administration (dose of 400 mg) | safety of local administration (dose of 800 mg) | water solubility [1]
CCCN1CCCC[C@H]1C(=O)Nc1c(C)cccc1C [ropivacaine, (S)-1-Propyl-2',6'-dimethyl-2-piperidylcarboxyanilide] | 0.60 µg/mL | 0.85 µg/mL | 0.34 µg/mL | safe | safe | 
CCCN1CCCC[C@H]1C(=O)Nc1c(C)cccc1C [ropivacaine free base, (S)-1-Propyl-2',6'-dimethyl-2-piperidylcarboxyanilide] |  |  |  |  |  | weak
